The values that follow come from patent US20250144067A1, “PERSONALIZED STARVATION THERAPY FOR CANCER” (Faeth Therapeutics, Inc., priority 2021, published 2025).

Where a name gives a salt, the structure may show the parent alone. Read-outs that look alike come from different tables or passages of the source.

Assay [1] deals with NCI-H292 lung cancer cells. Put plainly: FDA drug screening, complete media vs cholesterol-free media with simvastatin (TABLE 2). Type of assay: cell-based, human.
In assay [2] the test system is NCI-H292 lung cancer cells. The assay is described as follows: FDA drug screening, complete media vs cholesterol-free media without statin (TABLE 1). The format is cell-based, human.
Setting [3] is: NCI-H292 cells, FDA drug library screen, cholesterol-free media with simvastatin 0.04 μM.
[4] abbreviates: NCI-H292 cells, FDA drug library screen, complete media.
Where [5] appears, read: complete media vs cholesterol-free media + simvastatin (0.04 μM), >0 enhanced anti-cancer activity, about 0 neutral, <0 antagonist.
The mark [6] stands for this setting: Complete minus Cholesterol-free, greater than 0 enhanced anti-cancer activity, about 0 neutral, below 0 antagonists.
Where [7] appears, read: NCI-H292 cells in cholesterol-free media without statin.
Setting [8] is: NCI-H292 cells in complete media.
Setting [9] is: NCI-H292 cells, cholesterol-free media with simvastatin 0.04 μM, cell growth value in FDA drug screen.
[10] abbreviates: NCI-H292 cells, complete media, cell growth value in FDA drug screen.
[11] abbreviates: complete media minus cholesterol-free media + simvastatin, >0 enhanced anti-cancer activity, about 0 neutral, <0 antagonist.
[12] abbreviates: Complete minus Cholesterol-free, >0 enhanced anti-cancer activity, about 0 neutral, <0 antagonist.
The mark [13] stands for this setting: NCI-H292 cells, cholesterol-free media without statin.
[14] abbreviates: NCI-H292 cells, cholesterol-free media without statin, FDA drug library screen.
[15] abbreviates: NCI-H292 cells, complete media, FDA drug library screen.
Where [16] appears, read: NCI-H292 cells, FDA library drug in cholesterol-free media with simvastatin 0.04 μM.
[17] abbreviates: NCI-H292 cells, FDA library drug in complete media.
Where [18] appears, read: NCI-H292 cells, drug in cholesterol-free media with simvastatin 0.04 μM.
Setting [19] is: NCI-H292 cells, drug in complete media.

Take `CCCCS(=O)(=O)N[C@@H](Cc1ccc(OCCCCC2CCNCC2)cc1)C(=O)O` [Tirofiban (hydrochloride monohydrate)]: the “Cholesterol-free media + simvastatin (0.04 μM)” value in assay [1] (setting [3]) came to 1.824. In assay [1] (setting [4]), the “Complete Media” value was 1.693. The Difference in assay [1] (setting [5]) is listed as −0.13; in assay [2] (setting [6]), −0.96. This compound also returned a Cholesterol-free in assay [2] (setting [7]) of 1.842. Further, the Complete in assay [2] (setting [8]) worked out at 0.8788.

For `COC(=O)[C@H]1[C@H]2C[C@@H]3c4[nH]c5cc(OC)ccc5c4CCN3C[C@H]2C[C@@H](OC(=O)c2cc(OC)c(OC)c(OC)c2)[C@@H]1OC` [Reserpine], in assay [1] (setting [9]), the “Cholesterol-free media + simvastatin (0.04 μM)” value worked out at 0.8906. Further, in assay [1] (setting [10]), the “Complete Media” value is 0.9102. In addition, the figures for the Difference in assay [1] (setting [11]) and in assay [2] (setting [12]) were 0.02 and −0.28, respectively. For the same compound, the Cholesterol-free in assay [2] (setting [13]) was found to be 1.042. For the same compound, the Complete in assay [2] (NCI-H292 cells, complete media) was determined as 0.7591.

As for `CN(C)C(=O)Oc1ccc[n+](C)c1.[Br-]` [Pyridostigmine (bromide)], in assay [1], the “Cholesterol-free media + simvastatin (0.04 μM)” value is given as 1.546, the “Complete Media” value is 1.09 and the Difference is reported as −0.46. In assay [2], this compound gave a Cholesterol-free of 0.882, a Complete of 0.9353 and a Difference of 0.05.

For `CCCNCC(O)COc1ccccc1C(=O)CCc1ccccc1` (stereo not drawn) [Propafenone (hydrochloride)], in assay [1] (NCI-H292 cells, cholesterol-free media with simvastatin 0.04 μM, FDA drug library screen (TABLE 2)), the “Cholesterol-free media + simvastatin (0.04 μM)” value turned out to be 1.11. Besides, the “Complete Media” value in assay [1] (NCI-H292 cells, complete media, FDA drug library screen (TABLE 2)) was determined as 1.1. Moreover, the Difference in assay [1] (complete media minus cholesterol-free media + simvastatin (0.04 μM), >0 enhanced anti-cancer activity, about 0 neutral, <0 antagonist) is listed as −0.01; in assay [2] (setting [12]) it was 0.02. In addition, the Cholesterol-free in assay [2] (setting [14]) is on record as 1.064. For the same compound, the Complete in assay [2] (setting [15]) turned out to be 1.086.

Regarding `OCCN(CCO)c1nc(N2CCCCC2)c2nc(N(CCO)CCO)nc(N3CCCCC3)c2n1` [Dipyridamole], the “Cholesterol-free media + simvastatin (0.04 μM)” value in assay [1] (setting [9]) came out at 0.9652. Also, in assay [1] (setting [10]), the “Complete Media” value came to 1.095. The values for the Difference in assay [1] (setting [11]) and in assay [2] (setting [6]) were 0.13 and −0.51, respectively. The Cholesterol-free in assay [2] (setting [7]) is reported as 1.48. The Complete in assay [2] (setting [8]) stood at 0.9729.

For `C=CCCCCCCCCC(=O)O` [10-Undecenoic acid], the “Cholesterol-free media + simvastatin (0.04 μM)” value in assay [1] (setting [16]) worked out at 1.07. Further, the “Complete Media” value in assay [1] (setting [17]) is 0.7648. The Difference in assay [1] (setting [5]) is listed as −0.30; in assay [2] (setting [12]) it was 0.01. This compound also gave a Cholesterol-free in assay [2] (setting [14]) of 0.9796. Moreover, the Complete in assay [2] (setting [15]) was 0.99.

For `CC(C)OC(=O)OCOP(=O)(CO[C@H](C)Cn1cnc2c(N)ncnc21)OCOC(=O)OC(C)C.O=C(O)/C=C/C(=O)O` [Tenofovir (Disoproxil Fumarate)], the “Cholesterol-free media + simvastatin (0.04 μM)” value in assay [1] (setting [16]) was 1.321. In assay [1] (setting [17]), the “Complete Media” value is reported as 0.7221. The Difference in assay [1] (setting [5]) was −0.60; in assay [2] (complete vs cholesterol-free media, greater than 0 enhanced anti-cancer activity, about 0 neutral, below 0 antagonists), −0.42. Further, in assay [2] (setting [13]), the Cholesterol-free is 1.163. The compound further returned a Complete in assay [2] (NCI-H292 cells, complete media) of 0.7425.

`CCCc1nn(C)c2c(=O)[nH]c(-c3cc(S(=O)(=O)N4CCN(C)CC4)ccc3OCC)nc12` [Sildenafil]: the “Cholesterol-free media + simvastatin (0.04 μM)” value in assay [1] (setting [3]) turned out to be 1.23. Moreover, the “Complete Media” value in assay [1] (setting [4]) is reported as 1.131. In addition, the Difference in assay [1] (setting [5]) was −0.10; in assay [2] (setting [6]), −0.63. Moreover, in assay [2] (setting [7]), the Cholesterol-free is reported as 1.66. This compound also returned a Complete in assay [2] (setting [8]) of 1.034.

In the case of Thiamine nitrate, the “Cholesterol-free media + simvastatin (0.04 μM)” value in assay [1] (setting [18]) came out at 0.9067. Also, the “Complete Media” value in assay [1] (setting [19]) turned out to be 0.7018. The values for the Difference in assay [1] (setting [5]) and in assay [2] (setting [12]) were −0.20 and −0.26, respectively. This compound yielded a Cholesterol-free in assay [2] (setting [13]) of 0.9749. Also, in assay [2] (NCI-H292 cells, complete media), the Complete turned out to be 0.7175.

Regarding `COc1cc(O)c(C(=O)Nc2nc(C(=O)NCCN(C(C)C)C(C)C)cs2)cc1OC`, the “Cholesterol-free media + simvastatin (0.04 μM)” value in assay [1] (setting [18]) was 1.16. Besides, in assay [1] (setting [19]), the “Complete Media” value was 0.9105. Also, the Difference is −0.25 in assay [1] (setting [5]) and −0.47 in assay [2] (setting [6]). The same compound gave a Cholesterol-free in assay [2] (setting [7]) of 1.419. In assay [2] (setting [8]), this compound returned a Complete of 0.9453.
